Experimental data from patent publication US8383183B2, “Sweetness enhancers, sweetness enhanced sweetener compositions, methods for their formulation, and uses” (The Coca-Cola Company, priority 2007, dated 2013).
Where “and” joins values, the source holds several entries; their conditions need not be identical. Identical values can stand only once.

Columns and labels:
[1] = Rate of dissolution in H2O at 25° C.; type: physicochemical
[2] = tested on: sweetness intensity of 6% sucrose; test: Sulfamate & 6% sucrose Sweetness Enhancement Test (sensory rating against 6-10% sucrose references); type: in vivo; design: key to Sweetness Intensity Rating (6-10), subject #1 / Sweetness Intensity Rating (6-10), subject #2 / Sweetness Intensity Rating (6-10), subject #3 / Sweetness Intensity Rating (6-10), subject #4 / Sweetness Intensity Rating (6-10), subject #5 / Average Intensity Rating: sweetness rated 6-10 relative to 6-10% sucrose references
Experimental: Sensory studies that were carried out on the N-substituted sulfamic acid salts included 1) preliminary sulfamate analogue Sweetness Detection Threshold (SDT) estimation, 2) refined Sweetness Detection Threshold (SDT) estimation, 3) N-substituted sulfamic acid salts mixed with 6% sucrose Sweetness Enhancement Test and 4) repeat of step 3. Reference samples were prepared at 6, 7, 8, 9 and 10% sucrose (w/v). […] Each of the ten samples was then individually rated for sweetness intensity on a scale of 6-10 relative to the 6-10% sucrose references.

sweet taste [3] = test: Preliminary sulfamate analogue Sweetness Detection Threshold (SDT) estimation, sip-and-spit, one experienced subject; type: in vivo; conditions: for sweet taste exhibited: 15.6-1,000 ppm solutions in water, one subject
Experimental: Sensory studies that were carried out on the N-substituted sulfamic acid salts included 1) preliminary sulfamate analogue Sweetness Detection Threshold (SDT) estimation, 2) refined Sweetness Detection Threshold (SDT) estimation, 3) N-substituted sulfamic acid salts mixed with 6% sucrose Sweetness Enhancement Test and 4) repeat of step 3. A 1,000 ppm sulfamate analogue solution was prepared by dissolution of 20 mg sulfamate analogue in 20 mL purified water. An aliquot (10 mL) of this solution was diluted to 20 mL with water to obtain a 500 ppm solution. Additional 1:1 serial dilutions step were used to obtain 250, 125, 62.5, 31.2 and 15.6 ppm solutions. These solutions were then tasted in ascending order of concentration by one experienced subject by using a sip-and-spit protocol. The subject's estimated SDT was determined to be at the lowest concentration at which sweetness was definitely observed.

sweet taste [4] = test: N-alkyl sulfamate SDT estimation, sip-and-spit, 5 experienced subjects; type: in vivo
Experimental: A 250 ppm solution of 4 was prepared by dissolution of 50 mg sulfamate in 200 mL purified water. An aliquot (100 mL) of this solution then was diluted to 200 mL with water to obtain a 125 ppm solution. Additional 1:1 serial dilution steps were used to prepare 62.5, 31.2 and 15.6 ppm solutions. These solutions then were tasted in ascending order of concentration by 5 experienced subjects by a sip-and-spit protocol.

[5] = 125 ppm in 6% sucrose, single test sample, listed as NS

C=C1C[C@@]23CC[C@H]4[C@@](C)(CCC[C@@]4(C)C(=O)O[C@@H]4O[C@H](CO)[C@@H](O)[C@H](O)[C@H]4O)[C@@H]2CC[C@]1(O[C@@H]1O[C@H](CO)[C@@H](O)[C@H](O[C@@H]2O[C@H](CO)[C@@H](O)[C@H](O)[C@H]2O)[C@H]1O[C@@H]1O[C@H](CO)[C@@H](O)[C@H](O)[C@H]1O)C3 [Form 1, rebaudioside A]
Rate of dissolution in H2O at 25° C. ([1]; in 60 minutes): Very low (<0.2%

C=C1C[C@@]23CC[C@H]4[C@@](C)(CCC[C@@]4(C)C(=O)O[C@@H]4O[C@H](CO)[C@@H](O)[C@H](O)[C@H]4O)[C@@H]2CC[C@]1(O[C@@H]1O[C@H](CO)[C@@H](O)[C@H](O[C@@H]2O[C@H](CO)[C@@H](O)[C@H](O)[C@H]2O)[C@H]1O[C@@H]1O[C@H](CO)[C@@H](O)[C@H](O)[C@H]1O)C3 [Form 2, rebaudioside A]
Rate of dissolution in H2O at 25° C. ([1]; in 5 minutes): Intermediate (<30%

C=C1C[C@@]23CC[C@H]4[C@@](C)(CCC[C@@]4(C)C(=O)O[C@@H]4O[C@H](CO)[C@@H](O)[C@H](O)[C@H]4O)[C@@H]2CC[C@]1(O[C@@H]1O[C@H](CO)[C@@H](O)[C@H](O[C@@H]2O[C@H](CO)[C@@H](O)[C@H](O)[C@H]2O)[C@H]1O[C@@H]1O[C@H](CO)[C@@H](O)[C@H](O)[C@H]1O)C3 [Form 3, rebaudioside A]
Rate of dissolution in H2O at 25° C. ([1]; in 5 minutes): High (>30%

C=C1C[C@@]23CC[C@H]4[C@@](C)(CCC[C@@]4(C)C(=O)O[C@@H]4O[C@H](CO)[C@@H](O)[C@H](O)[C@H]4O)[C@@H]2CC[C@]1(O[C@@H]1O[C@H](CO)[C@@H](O)[C@H](O[C@@H]2O[C@H](CO)[C@@H](O)[C@H](O)[C@H]2O)[C@H]1O[C@@H]1O[C@H](CO)[C@@H](O)[C@H](O)[C@H]1O)C3 [Form 4, rebaudioside A]
Rate of dissolution in H2O at 25° C. ([1]; in 5 minutes): High (>35.0%

CC1CCCCC1NS(=O)(=O)[O-].[Na+] (stereo not shown) [sulfamate 2, sodium 1H-2-methyl cyclohexyl sulfamate]
sweetness intensity of a 6.0% sugar solution increased to the equivalent of ([2]; about 430 ppm in 6.0% sugar solution): about 7.3 % sugar solution
sweet taste exhibited (sweet taste [3]): exhibit sweet taste
off-taste (sweet taste [3]; 1,000 ppm in water): some bitterness off-taste problems
taste (sweet taste [3]; 1,000 ppm in water): slight sweet taste
sweet taste of the sulfamate by itself (sweet taste [3]; no sugar): not sweet by itself

CC(C)(C)CCNS(=O)(=O)[O-].[Na+] [sulfamate 3A, sodium 1H-3,3-dimethyl butyl sulfamate]
sweetness intensity of a 6.0% sugar solution increased to the equivalent of ([2]; about 406 ppm in 6.0% sugar solution): about 7.0 % sugar solution
sweet taste of the sulfamate by itself (sweet taste [3]; no sugar): not sweet by itself

CC(C)(C)CCNS(=O)(=O)[O-].[K+] [sulfamate 3B, potassium 1H-3,3-dimethyl butyl sulfamate]
sweetness intensity of a 6.0% sugar solution increased to the equivalent of ([2]; about 200 ppm in 6.0% sugar solution): about 7.0 % sugar solution
sweet taste of the sulfamate by itself (sweet taste [3]; in amounts up to 1000 ppm): not sweet by itself

O=S(=O)([O-])NC1CC2CCC1C2.[Na+] (stereo not shown) [sulfamate 4, sodium bicycle[2.2.1]heptan-2-yl sulfamate]
Average Intensity Rating ([2]; 125 ppm in 6% sucrose, single test sample, mean of 5 subjects, listed as NS): 8.2 and 8.4 and 7.2 and 8.6
Sweetness Intensity Rating (6-10), subject #1 [2, 5]: 8 and 9 and 7
Sweetness Intensity Rating (6-10), subject #2 [2, 5]: 8 and 9 and 7 and 10
Sweetness Intensity Rating (6-10), subject #3 [2, 5]: 8 and 7
Sweetness Intensity Rating (6-10), subject #4 [2, 5]: 9 and 7
Sweetness Intensity Rating (6-10), subject #5 [2, 5]: 8 and 7
average sweetness intensity rating, with 6% Sucrose Test Average ([2]; 125 ppm in 6% sucrose, scale 6-10 relative to 6-10% sucrose references, mean of four test samples): 8.1
sweetness intensity of a 6.0% sugar solution increased to the equivalent of ([2]; about 125 ppm in 6.0% sugar solution): about 8.1 % sugar solution
sweet taste exhibited (sweet taste [3]): exhibit sweet taste
off-taste (sweet taste [3]; 1,000 ppm in water): no off-taste
taste (sweet taste [3]; 1,000 ppm in water): strong sweet taste
sweet taste of the sulfamate by itself (sweet taste [3]; no sugar): very faint sweet taste
taste (sweet taste [3]; ca. 62 ppm in water): weak sweet taste
Sweetness Detection Threshold (SDT) (sweet taste [4]; 5 subjects, in water): < 125 ppm
taste (sweet taste [4]; 15.6 ppm solution, all 5 subjects): absence of taste
taste (sweet taste [4]; 31.2 ppm solution, all 5 subjects): absence of taste
taste (sweet taste [4]; 62.5 ppm solution, 3 out of 5 subjects): very faint sweetness
sweetness, sugar equivalent (sweet taste [4]; 125 ppm solution, 4 out of 5 subjects): less than 1 % sugar equivalent
sweetness comparable to that of sucrose (sweet taste [4]; 250 ppm sample, all 5 subjects): ca. 2 % sucrose
equivalent sweetness intensity by itself (sweet taste [4]; about 62 ppm, by itself): < 1 % sugar solution

sodium 1H-1,3,5-triazolyl sulfamate [sulfamate 1]
sweetness intensity of a 6.0% sugar solution increased to the equivalent of ([2]; about 372 ppm in 6.0% sugar solution): about 7.1 % sugar solution
sweet taste of the sulfamate by itself (sweet taste [3]; no sugar): not sweet by itself

sodium 1H-thiazolyl sulfamate [sulfamate 5]
sweetness intensity of a 6.0% sugar solution increased to the equivalent of ([2]; about 404 ppm in 6.0% sugar solution): about 6.9 % sugar solution
sweet taste of the sulfamate by itself (sweet taste [3]; no sugar): not sweet by itself
